Source: patent US20240050428A1 (Cullgen (Shanghai), Inc., priority 2020, published 2024)
Where two headings read alike, the source gives them in different places.

Tests used:
MV4;11 cells = test: Cell viability assay (CellTiter-Glo) in MV4;11 cells, alone or with gilteritinib; assay type: cell-based; settings: Homo sapiens, MV4-11, 72 h, MV4;11 cells, CellTiter-Glo, read-out: MV4
MOLM-13 cells = test: Cell viability assay (CellTiter-Glo) in MOLM-13 cells, alone or with gilteritinib; assay type: cell-based; settings: Homo sapiens, MOLM-13, 72 h, MOLM-13 cells, CellTiter-Glo
[1] = compound alone (without gilteritinib), three days, 11 IC50
[2] = with gilteritinib 10 nM, three days, 11 IC50 gilteritinib
[3] = compound alone (without gilteritinib), three days, read-out: MOLM-13 IC50
[4] = with gilteritinib 20 nM, three days, read-out: MOLM-13 IC50 gilteritinib
[5] = compound with gilteritinib 10 nM, three days, 11 IC50 gilteritinib
[6] = compound with gilteritinib 20 nM, three days, read-out: MOLM-13 IC50 gilteritinib
[7] = with 10 nM gilteritinib, 3 days, 11 IC50 gilteritinib
[8] = without gilteritinib, 3 days, 11 IC50
[9] = with 20 nM gilteritinib, 3 days, read-out: MOLM-13 IC50 gilteritinib
[10] = without gilteritinib, 3 days, read-out: MOLM-13 IC50

SMILES	IC50 (MV4;11 cells; [1])	IC50 (MV4;11 cells; [2])	IC50 (MOLM-13 cells; [3])	IC50 (MOLM-13 cells; [4])	IC50 (MV4;11 cells; [5])	IC50 (MOLM-13 cells; [6])	IC50 (MV4;11 cells; [7])	IC50 (MV4;11 cells; [8])	IC50 (MOLM-13 cells; [9])	IC50 (MOLM-13 cells; [10])
O=C1CCC(N2C(=O)c3ccc(NCCC[C@H]4C[C@H](n5cc(-c6cnc7ccc(N8C[C@H]9C[C@@H]8CO9)cc7n6)cn5)C4)cc3C2=O)C(=O)N1 (stereo partly drawn) [GS-410, 5-((3-(trans-3-(4-(7-((1R,4R)-2-oxa-5-azabicyclo[2.2.1]heptan-5-yl)quinoxalin-2-yl)-1H-pyrazol-1-yl)cyclobutyl)propyl)amino)-2-(2,6-dioxopiperidin-3-yl)isoindoline-1,3-dione]	10 to 100 nM	< 10 nM	10 to 100 nM	< 10 nM						
O=C1CCC(N2C(=O)c3ccc(NC[C@H]4C[C@H](n5cc(-c6ccccn6)cn5)C4)cc3C2=O)C(=O)N1 (stereo partly drawn) [GS-577, 2-(2,6-Dioxopiperidin-3-yl)-5-(((trans-3-(4-(pyridin-2-yl)-1H-pyrazol-1-yl)cyclobutyl)methyl)amino)isoindoline-1,3-dione]	> 1000 nM		100 to 1000 nM		> 1000 nM	100 to 1000 nM				
O=C1CCC(N2C(=O)c3ccc(NCCCCCC(=O)N4CCC(n5cc(-c6cnccn6)cn5)CC4)cc3C2=O)C(=O)N1 (stereo not drawn) [GS-009, 2-(2,6-Dioxopiperidin-3-yl)-5-((6-oxo-6-(4-(4-(pyrazin-2-yl)-1H-pyrazol-1-yl)piperidin-1-yl)hexyl)amino)isoindoline-1,3-dione]							22 nM	296 nM	18 nM	35 nM
O=C1CCC(N2C(=O)c3ccc(NC[C@H]4C[C@H](n5cc(-c6cccnn6)c(C6CC6)n5)C4)cc3C2=O)C(=O)N1 (stereo partly drawn) [GS-597, 5-(((trans-3-(3-Cyclopropyl-4-(pyridazin-3-yl)-1H-pyrazol-1-yl)cyclobutyl)methyl)amino)-2-(2,6-dioxopiperidin-3-yl)isoindoline-1,3-dione]	10 to 100 nM		> 1000 nM		> 1000 nM	100 to 1000 nM				
O=C1CCC(N2Cc3c(Nc4ccnc(Nc5cccc(N6CCC(c7ccccc7)CC6)c5)n4)cccc3C2=O)C(=O)N1 (stereo not drawn) [GS-075]	100 to 1000 nM	10 to 100 nM	100 to 1000 nM	10 to 100 nM						
O=C1CCC(N2C(=O)c3ccc(NCC45CC(C(=O)N6CCC(n7cc(-c8cnc9ccccc9n8)cn7)CC6)(C4)C5)cc3C2=O)C(=O)N1 (stereo not drawn) [GS-144, 2-(2,6-Dioxopiperidin-3-yl)-5-(((3-(4-(4-(quinoxalin-2-yl)-1H-pyrazol-1-yl)piperidine-1-carbonyl)bicyclo[1.1.1]pentan-1-yl)methyl)amino)isoindoline-1,3-dione]	100 to 1000 nM	10 to 100 nM	> 1000 nM	100 to 1000 nM						
O=C1CCC(N2C(=O)c3ccc(NCCC[C@H]4C[C@H](n5cc(-c6cccc(C7CC7)n6)cn5)C4)cc3C2=O)C(=O)N1 (stereo partly drawn) [GS-447, 5-((3-(trans-3-(4-(6-cyclopropylpyridin-2-yl)-1H-pyrazol-1-yl)cyclobutyl)propyl)amino)-2-(2,6-dioxopiperidin-3-yl)isoindoline-1,3-dione]	10 to 100 nM		100 to 1000 nM		< 10 nM	10 to 100 nM				
O=C1CCC(N2C(=O)c3ccc(NCCCCCC(=O)N4CCC(n5cc(N6CCC6)cn5)CC4)cc3C2=O)C(=O)N1 (stereo not drawn) [GS-063, 5-((6-(4-(4-(Azetidin-1-yl)-1H-pyrazol-1-yl)piperidin-1-yl)-6-oxohexyl)amino)-2-(2,6-dioxopiperidin-3-yl)isoindoline-1,3-dione]							8550 nM	> 10000 nM	3680 nM	> 10000 nM
O=C1CCC(N2C(=O)c3ccc(NCCCCCC(=O)N4CCC(F)(c5ccccc5)CC4)cc3C2=O)C(=O)N1 (stereo not drawn) [GS-348, 2-(2,6-Dioxopiperidin-3-yl)-5-((6-(4-fluoro-4-phenylpiperidin-1-yl)-6-oxohexyl)amino)isoindoline-1,3-dione]	10 to 100 nM	< 10 nM	10 to 100 nM	< 10 nM						

The remaining lines, values ahead:

IC50 (MV4;11 cells; [1])	IC50 (MV4;11 cells; [2])	IC50 (MOLM-13 cells; [3])	IC50 (MOLM-13 cells; [4])	IC50 (MV4;11 cells; [5])	IC50 (MOLM-13 cells; [6])	IC50 (MV4;11 cells; [7])	IC50 (MV4;11 cells; [8])	IC50 (MOLM-13 cells; [9])	IC50 (MOLM-13 cells; [10])	SMILES
10 to 100 nM	10 to 100 nM	100 to 1000 nM	10 to 100 nM							O=C1CCC(N2Cc3c(Nc4ccnc(Nc5cccc(CN6CCC(n7cc(-c8cnc9cccc(Br)c9n8)cn7)CC6)c5)n4)cccc3C2=O)C(=O)N1 (stereo not drawn) [GS-028, 3-(4-((2-((3-((4-(4-(8-Bromoquinoxalin-2-yl)-1H-pyrazol-1-yl)piperidin-1-yl)methyl)phenyl)amino)pyrimidin-4-yl)amino)-1-oxoisoindolin-2-yl)piperidine-2,6-dione]
100 to 1000 nM		> 1000 nM		100 to 1000 nM	100 to 1000 nM					O=C1CCC(N2C(=O)c3ccc(NC[C@H]4C[C@H](n5cc(C6CC6)c(C6CC6)n5)C4)cc3C2=O)C(=O)N1 (stereo partly drawn) [GS-632, 5-(((trans-3-(3,4-Dicyclopropyl-1H-pyrazol-1-yl)cyclobutyl)methyl)amino)-2-(2,6-dioxopiperidin-3-yl)isoindoline-1,3-dione]
> 1000 nM	100 to 1000 nM	> 1000 nM	100 to 1000 nM							O=C1CCC(N2C(=O)c3ccc(NCCCCS(=O)(=O)N4CCC(n5cc(-c6cnc7ccccc7n6)cn5)CC4)cc3C2=O)C(=O)N1 (stereo not drawn) [GS-129, 2-(2,6-Dioxopiperidin-3-yl)-5-((4-((4-(4-(quinoxalin-2-yl)-1H-pyrazol-1-yl)piperidin-1-yl)sulfonyl)butyl)amino)isoindoline-1,3-dione]
10 to 100 nM	< 10 nM	10 to 100 nM	< 10 nM							Cc1nn(CCCCCCNc2ccc3c(c2)C(=O)N(C2CCC(=O)NC2=O)C3=O)c(C)c1-c1ncc2ccccc2n1 (stereo not drawn) [GS-151, 5-((6-(3,5-Dimethyl-4-(quinazolin-2-yl)-1H-pyrazol-1-yl)hexyl)amino)-2-(2,6-dioxopiperidin-3-yl)isoindoline-1,3-dione]
> 1000 nM	100 to 1000 nM	> 1000 nM	10 to 100 nM							O=C1CCC(N2C(=O)c3ccc(NCCOCCC(=O)N4CCC(n5cc(-c6cnc7ccccc7n6)cn5)CC4)cc3C2=O)C(=O)N1 (stereo not drawn) [GS-324, 2-(2,6-Dioxopiperidin-3-yl)-5-((2-(3-oxo-3-(4-(4-(quinoxalin-2-yl)-1H-pyrazol-1-yl)piperidin-1-yl)propoxy)ethyl)amino)isoindoline-1,3-dione]
< 10 nM		10 to 100 nM		< 10 nM	< 10 nM					O=C1CCC(N2C(=O)c3ccc(NC[C@H]4C[C@H](n5nc(C6CC6)c6ccccc65)C4)cc3C2=O)C(=O)N1 (stereo partly drawn) [GS-442, 5-(((trans-3-(3-cyclopropyl-1H-indazol-1-yl)cyclobutyl)methyl)amino)-2-(2,6-dioxopiperidin-3-yl)isoindoline-1,3-dione]
< 10 nM	< 10 nM	10 to 100 nM	< 10 nM							Cc1ccnc(-c2cn([C@H]3C[C@H](CNc4ccc5c(c4)C(=O)N(C4CCC(=O)NC4=O)C5=O)C3)nc2C2CC2)c1 (stereo partly drawn) [GS-253, 5-(((trans-3-(3-Cyclopropyl-4-(4-methylpyridin-2-yl)-1H-pyrazol-1-yl)cyclobutyl)methyl)amino)-2-(2,6-dioxopiperidin-3-yl)isoindoline-1,3-dione]
						9.9 nM	170 nM	32 nM	179 nM	O=C1CCC(N2Cc3cc(CNC(=O)C(F)(F)CCC(=O)N4CCC(n5cc(-c6cnc7cccc(Br)c7n6)cn5)CC4)ccc3C2=O)C(=O)N1 (stereo not drawn) [GS-007, 5-(4-(4-(8-bromoquinoxalin-2-yl)-1H-pyrazol-1-yl)piperidin-1-yl)-N-((2-(2,6-dioxopiperidin-3-yl)-1-oxoisoindolin-5-yl)methyl)-2,2-difluoro-5-oxopentanamide]
> 1000 nM	> 1000 nM	> 1000 nM	> 1000 nM							O=C1CCC(N2Cc3c(Nc4ccnc(Nc5cccc(-n6cc(-c7cnc8ccccc8n7)cn6)c5)n4)cccc3C2=O)C(=O)N1 (stereo not drawn) [GS-084, 3-(1-Oxo-4-((2-((3-(4-(quinoxalin-2-yl)-1H-pyrazol-1-yl)phenyl)amino)pyrimidin-4-yl)amino)isoindolin-2-yl)piperidine-2,6-dione]
100 to 1000 nM	10 to 100 nM	100 to 1000 nM	< 10 nM							N#Cc1ccc2ncc(-c3cnn(CCCCCCNc4ccc5c(c4)C(=O)N(C4CCC(=O)NC4=O)C5=O)c3)nc2c1 (stereo not drawn) [GS-163, 3-(1-(6-((2-(2,6-Dioxopiperidin-3-yl)-1,3-dioxoisoindolin-5-yl)amino)hexyl)-1H-pyrazol-4-yl)quinoxaline-6-carbonitrile]
> 1000 nM	> 1000 nM	> 1000 nM	> 1000 nM							CN1CCC(Nc2ccc(-c3cn([C@H]4C[C@H](CNc5ccc6c(c5)C(=O)N(C5CCC(=O)NC5=O)C6=O)C4)nc3C3CC3)nc2)CC1 (stereo partly drawn) [GS-303, 5-(((trans-3-(3-Cyclopropyl-4-(5-((1-methylpiperidin-4-yl)amino)pyridin-2-yl)-1H-pyrazol-1-yl)cyclobutyl)methyl)amino)-2-(2,6-dioxopiperidin-3-yl)isoindoline-1,3-dione]
< 10 nM		< 10 nM		< 10 nM	< 10 nM					O=C1CCC(N2C(=O)c3ccc(NC[C@H]4C[C@H](n5cc(-c6cnc7ccccc7n6)c(C6CC6)n5)C4)cc3C2=O)C(=O)N1 (stereo partly drawn) [GS-579, 5-(((trans-3-(3-Cyclopropyl-4-(quinoxalin-2-yl)-1H-pyrazol-1-yl)cyclobutyl)methyl)amino)-2-(2,6-dioxopiperidin-3-yl)isoindoline-1,3-dione]
